Test results: US20260216216A1, “(N-ALKYLDIHYDROL-2H-OXAZINYL)-CANNABIDIOL AS ANTI-PROLIFERATIVE AGENT AND PROCESS FOR PREPARATION THEREOF” (COUNCIL OF SCIENTIFIC AND INDUSTRIAL RESEARCH, priority 2022, published 2026)
Read-outs that look alike come from different tables or passages of the source.

Key:
[1] = tested on: PC-3 (prostate cancer) cell line; assay: SRB in-vitro cytotoxicity assay, PC-3; conditions: Homo sapiens
Procedure: (§1) All the ring annulated analogues of cannabinoid were evaluated for their cytotoxicity against number of human cancer cell lines. To evaluate the in-vitro cytotoxicity, a sulphorhodamine B (SRB) assay was carried out. SRB is a negatively charged pink aminoxanthine dye that binds to the basic amino acid of cells in mildly acidic conditions and is removed in basic conditions. […] When cells reached 60-70% confluency, trypsinized and seeded in 96 well plates according to their inoculation density and incubated for 24 hours to attain their proper morphology. Next-day cells were again incubated for 48 hours with test compounds or paclitaxel (positive control). Next, cells were fixed with 50% of ice-cold TCA for 1 hours, washed with distilled water, and kept for air drying. Air-dried plates were then stained with 0.4% SRB dye for 30 minutes and subsequently with water and 1% v/v glacial acetic acid were then kept for air drying. […] The viability of cells is measured based on bound dye after fixation, which is measured by absorbance at 540 nm.

[2] = tested on: A549 (lung cancer) cell line; assay: SRB in-vitro cytotoxicity assay, A549; conditions: Homo sapiens
Procedure: as §1

[3] = tested on: Mia-PaCa (pancreatic cancer) cell line; assay: SRB in-vitro cytotoxicity assay, Mia-PaCa; conditions: Homo sapiens
Procedure: as §1

[4] = tested on: HCT-116 (colorectal cancer) cell line; assay: SRB in-vitro cytotoxicity assay, HCT-116; conditions: Homo sapiens
Procedure: as §1

[5] = tested on: U251 (glioblastoma) cell line; assay: SRB in-vitro cytotoxicity assay, U251; conditions: Homo sapiens
Procedure: as §1

in vitro = conditions: human
Procedure: as §1

[6] = tested on: HEK-293 (normal cell lines); assay: SRB in-vitro cytotoxicity assay, HEK-293; conditions: Homo sapiens, HEK293, read-out: inhibition against HEK-293 cell lines
Procedure: as §1

[7] = tested on: MCF-7 (breast cancer) cell line; assay: SRB in-vitro cytotoxicity assay, MCF-7; conditions: Homo sapiens
Procedure: as §1

CC(=O)O[C@H]1C(=O)[C@@]2(C)[C@H]([C@H](OC(=O)c3ccccc3)[C@]3(O)C[C@H](OC(=O)[C@H](O)[C@@H](NC(=O)c4ccccc4)c4ccccc4)C(C)=C1C3(C)C)[C@]1(OC(C)=O)CO[C@@H]1C[C@@H]2O [Paclitaxel, paclitaxel, reference compound]
> 70%: inhibition at 20 µM ([1]; 48 h, read-out: Cytotoxicity (in vitro cell inhibition) PC3) | inhibition at 20 µM ([1]; PC-3, read-out: inhibition against PC3 cell lines) | inhibition at 20 µM ([2]; A549, 48 h, read-out: Cytotoxicity (in vitro cell inhibition) A549) | inhibition at 20 µM ([2]; A549, read-out: inhibition against A549 cell lines) | inhibition at 20 µM ([3]; MIA PaCa-2, 48 h, read-out: Cytotoxicity (in vitro cell inhibition) Mia-PaCa) | inhibition at 20 µM ([3]; MIA PaCa-2, read-out: inhibition against Mia-PaCa cell lines) | inhibition at 20 µM ([4]; HCT-116, 48 h, read-out: Cytotoxicity (in vitro cell inhibition) HCT-116) | inhibition at 20 µM ([4]; HCT-116, read-out: inhibition against HCT-116 cell lines) | inhibition at 20 µM ([5]; U-251, 48 h, read-out: Cytotoxicity (in vitro cell inhibition) U251) | inhibition at 20 µM ([5]; U-251, read-out: inhibition against U251 cell lines) | inhibition at 48 h, 20 µM (in vitro) | inhibition at 20 µM [6] | inhibition at 20 µM ([7]; MCF7, 48 h, read-out: Cytotoxicity (in vitro cell inhibition) MCF-7) | inhibition at 20 µM ([7]; MCF7, read-out: inhibition against MCF-7 cell lines)
